Legend:
[1] = system: U937 cells; assay: Cellular assay in U937 cells: activity of RIPK1 inhibitors on TNFα/zVAD.fmk-induced cell death (necroptosis), CellTiter 96 AQueous (MTS) readout; type: cell-based; conditions: Homo sapiens, U-937
How it was run: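 Necroptosis was measured by viable-cell MTS reduction (4 h, absorbance 490 nm) after overnight (18–24 h) 37° C culture. Cell suspensions of U937 cells carried TNFα (100 ng/ml) plus zVAD.fmk (50 μM) before compound was added. A 10-point curve (10 μM–0.26 nM or 1 μM–0.07 nM) was run in duplicate, normalised to the control lacking TNFα/zVAD.fmk.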

[2] = target: T1, hRIPK1 (aa 1-375) fusion protein (Homo sapiens, UniProt Q13546); assay: ADP-Glo kinase assay: catalytic activity of RIPK1 (autophosphorylation, conversion of ATP to ADP); type: biochemical
T1 construct: hRIPK1 (aa 1-375) fusion protein
T1 sequence (Q13546 1-375): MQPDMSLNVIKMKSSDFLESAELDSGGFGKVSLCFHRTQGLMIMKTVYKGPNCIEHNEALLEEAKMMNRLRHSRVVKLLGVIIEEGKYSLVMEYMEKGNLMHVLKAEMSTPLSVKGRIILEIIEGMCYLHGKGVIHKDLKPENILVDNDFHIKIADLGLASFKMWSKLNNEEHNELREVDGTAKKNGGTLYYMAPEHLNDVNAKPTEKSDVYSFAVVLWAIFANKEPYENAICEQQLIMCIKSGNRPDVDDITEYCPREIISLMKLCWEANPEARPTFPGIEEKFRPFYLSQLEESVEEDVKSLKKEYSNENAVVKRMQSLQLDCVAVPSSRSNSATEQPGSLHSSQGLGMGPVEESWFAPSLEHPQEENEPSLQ
How it was run: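 hRIPK1 (aa 1-375) fusion protein (3.6 μg/ml final) was preincubated 30 min at rt with compound (33300-1.69 nM, 1% DMSO), then 50 μM ATP was added for 240 min at rt. ADP from autophosphorylation was measured by ADP-Glo luminescence and curves fitted by nonlinear regression.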

| IC50 [2] [nM] | SMILES | IC50 [1] [nM] |
| --- | --- | --- |
| 64 | Cc1cc(C[C@H]2CC[C@H](C(=O)N3OCC[C@H]3c3cnc(C)c(F)c3)CC2)cnn1 [compound 398, trans-[(3S)-3-(5-fluoro-6-methylpyridin-3-yl)-1,2-oxazolidin-2-yl]-[4-[(6-methylpyridazin-4-yl)methyl]cyclohexyl]methanone] | 182 |
| 19 | Cc1ncc(C#N)cc1C[C@H]1CC[C@H](C(=O)N2OCC[C@H]2c2cc(F)cc(C#N)c2)CC1 [compound 277, trans-5-[[4-[(3S)-3-(3-cyano-5-fluoro-phenyl)isoxazolidine-2-carbonyl]cyclohexyl]methyl]-6-methyl-pyridine-3-carbonitrile] | 4 |
| 6 | Cn1ncc2ccc(C[C@H]3CC[C@H](C(=O)N4OCC[C@H]4c4cc(F)cc(F)c4)CC3)cc21 [compound 295, trans-[(3S)-3-(3,5-difluorophenyl)isoxazolidin-2-yl]-[4-[(1-methylindazol-6-yl)methyl]cyclohexyl]methanone] | 1 |
| 27 | NC(=O)c1cc2ncn(C[C@H]3CC[C@H](C(=O)N4OCC[C@H]4c4cc(F)cc(F)c4)CC3)c2cc1F [compound 75, trans-1-((4-((S)-3-(3,5-difluorophenyl)isoxazolidine-2-carbonyl)cyclohexyl)methyl)-6-fluoro-1H-benzo[d]imidazole-5-carboxamide] | 36 |
| 22 | Cc1cc2nnc(C)n2cc1C[C@H]1CC[C@H](C(=O)N2OCC[C@H]2c2ccc(F)c(F)c2)CC1 [compound 318, [(3S)-3-(3,4-difluorophenyl)isoxazolidin-2-yl]-[4-[(3,7-dimethyl-[1,2,4]triazolo[4,3-a]pyridin-6-yl)methyl]cyclohexyl]methanone] | 27 |
| 18 | N#Cc1cc(F)cc([C@@H]2CCON2C(=O)[C@H]2CC[C@H](Cn3ncc4cc(C#N)c(F)cc43)CC2)c1 [compound 66, trans-1-((4-((S)-3-(3-cyano-5-fluorophenyl)isoxazolidine-2-carbonyl)cyclohexyl)methyl)-6-fluoro-1H-indazole-5-carbonitrile] | 2 |
| 23 | O=C1NCc2c(F)cc(C[C@H]3CC[C@H](C(=O)N4OCC[C@H]4c4ccc(F)cc4)CC3)cc21 [compound 212, trans-4-fluoro-6-[[4-[(3S)-3-(4-fluorophenyl)isoxazolidine-2-carbonyl]cyclohexyl]methyl]isoindolin-1-one] | 10 |
| 11 | Cc1cn2nc(C[C@H]3CC[C@H](C(=O)N4OCC[C@H]4c4cc(F)cc(C#N)c4)CC3)cc(C)c2n1 [compound 290, trans-3-[(3S)-2-[4-[(2,8-dimethylimidazo[1,2-b]pyridazin-6-yl)methyl]cyclohexanecarbonyl]isoxazolidin-3-yl]-5-fluoro-benzonitrile] | 4 |
| 28 | Cc1cnc([C@@H]2CCON2C(=O)[C@H]2CC[C@H](Cc3cc(C)ncc3F)CC2)cn1 [compound 384, trans-[4-[(5-fluoro-2-methylpyridin-4-yl)methyl]cyclohexyl]-[(3S)-3-(5-methylpyrazin-2-yl)-1,2-oxazolidin-2-yl]methanone] | 7 |
| 57 | Cc1nc2c(C)cc(C[C@H]3CC[C@H](C(=O)N4OCC[C@H]4c4csc(C)n4)CC3)cn2n1 [compound 361, trans-[4-(2,8-Dimethyl-[1,2,4]triazolo[1,5-a]352yridine-6-ylmethyl)-cyclohexyl]-[(S)-3-(2-methyl-thiazol-4-yl)-isoxazolidin-2-yl]-methanone] | 35 |
| 17 | N#Cc1cc(F)c2ncn(C[C@H]3CC[C@H](C(=O)N4OCC[C@H]4c4cc(F)cc(F)c4)CC3)c2c1 [compound 37, trans-1-((4-((S)-3-(3,5-difluorophenyl)isoxazolidine-2-carbonyl)cyclohexyl)methyl)-4-fluoro-1H-benzo[d]imidazole-6-carbonitrile] | 5 |
| 32 | N#Cc1cc2c(cc1F)ncn2C[C@H]1CC[C@H](C(=O)N2OCC[C@H]2c2cnccn2)CC1 [compound 98, trans-5-fluoro-1-((4-((S)-3-(pyrazin-2-yl)isoxazolidine-2-carbonyl)cyclohexyl)methyl)-1H-benzo[d]imidazole-6-carbonitrile] | 84 |
| 67 | Cc1ncn(C[C@H]2CC[C@H](C(=O)N3OCC[C@H]3c3cc(F)cc(C#N)c3)CC2)c1C [compound 82, trans-3-((S)-2-(4-((4,5-dimethyl-1H-imidazol-1-yl)methyl)cyclohexane-1-carbonyl)isoxazolidin-3-yl)-5-fluorobenzonitrile] | 136 |
| 18 | CNC(=O)c1ccc(F)c(C[C@H]2CC[C@H](C(=O)N3OCC[C@H]3c3ccc(F)cc3)CC2)c1 [compound 173, trans-4-fluoro-3-[[4-[(3S)-3-(4-fluorophenyl)isoxazolidine-2-carbonyl]cyclohexyl]methyl]-N-methyl-benzamide] | 17 |
| 32 | Cc1ncc(F)cc1C[C@H]1CC[C@H](C(=O)N2OCC[C@H]2c2ccc(F)cc2)CC1 [compound 179, trans-[4-[(5-fluoro-2-methyl-3-pyridyl)methyl]cyclohexyl]-[(3S)-3-(4-fluorophenyl)isoxazolidin-2-yl]methanone] | 5 |
| 20 | N#Cc1cnc2cnn(C[C@H]3CC[C@H](C(=O)N4OCC[C@H]4c4cc(F)cc(F)c4)CC3)c2c1 [compound 26, trans-1-((4-((S)-3-(3,5-difluorophenyl)isoxazolidine-2-carbonyl)cyclohexyl)methyl)-1H-pyrazolo[4,3-b]pyridine-6-carbonitrile] | 2 |
| 19 | N#Cc1cc(F)cc([C@@H]2CCON2C(=O)[C@H]2CC[C@H](Cn3c(=O)oc4ccccc43)CC2)c1 [compound 18, trans-3-fluoro-5-((S)-2-(4-((2-oxobenzo[d]oxazol-3(2H)-yl)methyl)cyclohexane-1-carbonyl)isoxazolidin-3-yl)benzonitrile] | 16 |
| 34 | Cc1ncn(C[C@H]2CC[C@H](C(=O)N3OCC[C@H]3c3cc(F)cc(F)c3)CC2)c1C#N [compound 89, trans-1-((4-((S)-3-(3,5-difluorophenyl)isoxazolidine-2-carbonyl)cyclohexyl)methyl)-4-methyl-1H-imidazole-5-carbonitrile] | 38 |
| 104 | Cc1nnc2c(F)cc(C[C@H]3CC[C@H](C(=O)N4OCC[C@H]4c4cnccn4)CC3)cn12 [compound 359, trans-[4-[(8-fluoro-3-methyl-[1,2,4]triazolo[4,3-a]pyridin-6-yl)methyl]cyclohexyl]-[(3S)-3-pyrazin-2-yl-1,2-oxazolidin-2-yl]methanone] | 451 |
| 26 | Cc1ncc(F)cc1C[C@H]1CC[C@H](C(=O)N2OCC[C@H]2c2cc(F)cc(C#N)c2)CC1 [compound 181, trans-3-fluoro-5-[(3S)-2-[4-[(5-fluoro-2-methyl-3-pyridyl)methyl]cyclohexanecarbonyl]isoxazolidin-3-yl]benzonitrile] | 2 |
| 22 | N#Cc1cc(F)cc([C@@H]2CCON2C(=O)[C@H]2CC[C@H](Cn3ccc4cc(F)ccc43)CC2)c1 [compound 95, trans-3-fluoro-5-((S)-2-(4-((5-fluoro-1H-indol-1-yl)methyl)cyclohexane-1-carbonyl)isoxazolidin-3-yl)benzonitrile] | 4 |
| 26 | Cc1ncc([C@@H]2CCON2C(=O)[C@H]2CC[C@H](Cc3ccc4ncnn4c3)CC2)cc1F [compound 337, trans-[(3S)-3-(5-fluoro-6-methylpyridin-3-yl)-1,2-oxazolidin-2-yl]-[4-([1,2,4]triazolo[1,5-a]pyridin-6-ylmethyl)cyclohexyl]methanone] | 31 |
| 154 | N#Cc1ccc2c(c1)ncn2C[C@H]1CC[C@H](C(=O)N2OCC[C@H]2c2cncc(F)c2)CC1 [compound 6, trans-1-((4-((S)-3-(5-fluoropyridin-3-yl)isoxazolidine-2-carbonyl)cyclohexyl)methyl)-1H-benzo[d]imidazole-5-carbonitrile] | 377 |
| 75 | O=C([C@H]1CC[C@H](Cn2cnc3cc(F)ccc32)CC1)N1OCC[C@H]1c1cnccn1 [compound 92, trans-(4-((5-fluoro-1H-benzo[d]imidazol-1-yl)methyl)cyclohexyl)((S)-3-(pyrazin-2-yl)isoxazolidin-2-yl)methanone] | 132 |
| 33 | Cc1cc(C[C@H]2CC[C@H](C(=O)N3OCC[C@H]3c3cnccn3)CC2)cn2c(C)nnc12 [compound 301, trans-[4-[(3,8-dimethyl-[1,2,4]triazolo[4,3-a]pyridin-6-yl)methyl]cyclohexyl]-[(3S)-3-pyrazin-2-yl-1,2-oxazolidin-2-yl]methanone] | 34 |

Source: patent US20260158009A1 (GENZYME CORPORATION, priority 2023, published 2026)
